Legend:
Experiment in all cases: relative viability (nuclei count vs DMSO), 5 days (fraction); higher = more cells survive
[1] = compound: Cc1cc(Nc2cc(N3CCN(C)CC3)nc(Sc3ccc(NC(=O)C4CC4)cc3)n2)n[nH]1 [Tozasertib] + Nc1ncn([C@H]2C[C@H](O)[C@@H](CO)O2)c(=O)n1 [Decitabine] (partner 2 µM)
Procedure, shortened: (§1)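 For relative viability, nuclei counts in treated wells were divided by those in vehicle wells. Lung cancer cell lines had been pin-tool dosed in 1536-well plates the day after seeding and cultured for 5 days, then fixed and stained in one step (final 0.05% Triton X-100, 1% formaldehyde, 1 ug/ml Hoechst) and imaged at 4×. Doses were one drug alone or a fixed anchor-drug dose plus five library-drug doses (not always all listed) in √10 steps, and values are duplicate-plate medians.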

[2] = compound: Cc1cc(Nc2cc(N3CCN(C)CC3)nc(Sc3ccc(NC(=O)C4CC4)cc3)n2)n[nH]1 [Tozasertib] + NC(=O)Nc1cc(-c2cccc(F)c2)sc1C(=O)N[C@H]1CCCNC1 [AZD7762] (partner 0.2 µM)
Procedure, shortened: as §1

[3] = compound: Cc1cc(Nc2cc(N3CCN(C)CC3)nc(Sc3ccc(NC(=O)C4CC4)cc3)n2)n[nH]1 [Tozasertib] + C[C@@H](Oc1cc(-c2cnn(C3CCNCC3)c2)cnc1N)c1c(Cl)ccc(F)c1Cl [Crizotinib] (partner 1 µM)
Procedure, shortened: as §1

[4] = compound: Cc1cc(Nc2cc(N3CCN(C)CC3)nc(Sc3ccc(NC(=O)C4CC4)cc3)n2)n[nH]1 [Tozasertib] + Nc1nc2[nH]cc(CCc3ccc(C(=O)N[C@@H](CCC(=O)O)C(=O)O)cc3)c2c(=O)[nH]1 [Pemetrexed] (partner 0.2 µM)
Procedure, shortened: as §1

[5] = compound: Cc1cc(Nc2cc(N3CCN(C)CC3)nc(Sc3ccc(NC(=O)C4CC4)cc3)n2)n[nH]1 [Tozasertib] + C[C@]1(O)C[C@@H](c2nc(-c3ccc4ccc(-c5ccccc5)nc4c3)c3c(N)nccn32)C1 [Linsitinib] (partner 1 µM)
Procedure, shortened: as §1

Cell Line | relative viability ([1]; first compound 0.004 µM) | relative viability ([1]; first compound 0.01265 µM) | relative viability ([1]; first compound 0.04 µM) | relative viability ([1]; first compound 0.1265 µM) | relative viability ([2]; first compound 0.004 µM) | relative viability ([2]; first compound 0.01265 µM) | relative viability ([2]; first compound 0.04 µM) | relative viability ([2]; first compound 0.1265 µM) | relative viability ([3]; first compound 0.004 µM) | relative viability ([3]; first compound 0.01265 µM) | relative viability ([3]; first compound 0.04 µM) | relative viability ([3]; first compound 0.1265 µM) | relative viability ([4]; first compound 0.004 µM) | relative viability ([4]; first compound 0.01265 µM) | relative viability ([4]; first compound 0.04 µM) | relative viability ([4]; first compound 0.1265 µM) | relative viability ([5]; first compound 0.004 µM) | relative viability ([5]; first compound 0.01265 µM) | relative viability ([5]; first compound 0.04 µM) | relative viability ([5]; first compound 0.1265 µM)
NCI-H441 | 0.226 | 0.222 | 0.25 | 0.261 | 1.61 | 0.989 | 1.17 | 1.08 | 0.706 | 0.591 | 0.828 | 0.628 | 0.264 | 0.235 | 0.251 | 0.237 | 0.496 | 0.551 | 0.616 | 0.353
NCI-H1437 | 0.614 | 0.49 | 0.584 | 0.359 | 1.14 | 1.16 | 1.01 | 1.14 | 0.929 | 0.839 | 0.721 | 0.922 | 0.302 | 0.292 | 0.328 | 0.296 | 1.09 | 0.971 | 1 | 0.779
NCI-H23 | 0.332 | 0.298 | 0.276 | 0.242 | 0.199 | 0.259 | 0.216 | 0.186 | 0.45 | 0.459 | 0.421 | 0.27 | 0.888 | 0.659 | 0.695 | 0.319 | 0.653 | 0.519 | 0.55 | 0.291
